Results reported in US6933312B2, “Pyrazole derivatives” (Agouron Pharmaceuticals, Inc., priority 2002, dated 2005).

Assays:
[1] = molecular target: T1, purified recombinant HIV-1 reverse transcriptase (Human immunodeficiency virus type 1 group M subtype B, UniProt P04585); assay: Inhibition of HIV-1 Reverse Transcriptase Enzyme; format: biochemical; details: Poly(rA)-oligo(dT) [3H]-SPA or [3H]-flashplate enzyme assay; 5% final DMSO
T1 construct: purified recombinant HIV-1 reverse transcriptase (RT, EC, 2.7.7.49); made in house; host or cells: Escherichia coli
Text: The activity of the compounds of the invention as reverse transcriptase inhibitors may be measured using the following assay.
Inhibition of HIV-1 Reverse Transcriptase Enzyme
Using purified recombinant HIV-1 reverse transcriptase (RT, EC, 2.7.7.49) obtained by expression in Escherichia Coli, a 96-well plate assay system is established for assaying a large number of samples using either the Poly(rA)-oligo(dT) Reverse Transcriptase [3H]-SPA enzyme assay system (Amersham NK9020) or the [3H]-flashplate enzyme assay system (NEN—SMP 103) and following the manufacturer's recommendations. The compounds are dissolved in 100% DMSO and diluted with the appropriate buffer to a 5% final DMSO concentration. The inhibitory activity is expressed in percent inhibition relative to DMSO control.

Row | SMILES | melting point | IC50 [1]
1 | Cc1n[nH]c(CN2Cc3ncccc3C2=O)c1Oc1cc(Cl)cc(C#N)c1 | 225 to 227 °C | –
2 | Cc1n[nH]c(CN2Cc3ccccc3C2=O)c1Oc1cc(Cl)cc(C#N)c1 [Example 1, 3-Chloro-5-[3-methyl-5-(1-oxo-1,3-dihydro-isoindol-2ylmethyl)-1H-pyrazol-4-yloxy]-benzonitrile] | – | 76 nM
3 | Cc1n[nH]c(CN2Cc3ccccc3C2=O)c1Oc1cc(C#N)cc(C#N)c1 [Example 4, 5-[3-Methyl-5-(1-oxo-1,3-dihydro-isoindol-2-ylmethyl)-1H-pyrazol-4-yloxy]-isophthalonitrile] | 247 to 248 °C | 505 nM
